The text below walks through data of patent publication US20250017895A1, “FLAVANOID CONTAINING COMPOSITIONS AND METHODS OF USE THEREOF FOR THE TREATMENT OF MITOCHONDRIAL DISORDERS” (priority 2021, published 2025).

Entries after “also recorded” stand apart in the source; their conditions may differ.

Series [1] concerns Pdss2kd/kd homozygous missense mutant mice. Nature of the series: Liver mitochondrial content (VDAC western blot, citrate synthase activity) in Pdss2kd/kd mice. Type of series: in vivo. Particulars: 5 μg/mL or 10 μg/mL in drinking water; both sexes. (Immunoblotting shows a protein as a band on a membrane.)
The subject of series [2] is nutrient sensing signaling network (NSSN) gene expression. Nature of the series: NSSN gene expression and RNAseq KEGG pathway profiling in gas-1(fc21) worms. Type of series: in vivo, C. elegans. Particulars: 24 hours; for MAPK signaling pathway expression (RNAseq, KEGG): relative to DMSO-only buffer. An excerpt: RQ, relative quantitation. […] Pathways marked with a star are also positively modulated in this same mitochondrial disease animal model by combination glucose+nicotinic acid+N-acetylcysteine triple therapy.
It is already evident that epicatechin therapy in some diseases can favorably alter the activities of central NSSN nodes, such as AMPK, that are known to regulate cell proliferation, autophagy, and mitochondrial proliferation. […] The pathways marked with a star can similarly be restored in gas-1(fc21) complex I deficient worms by combination therapy of glucose+nicotinic acid+N-acetylcysteine.

In series [3] the test system is Human podocytes (renal glomerular cells). The experiment in a line: Human podocyte viability / cell death under rotenone complex I inhibition. Particulars: for cell death caused by rotenone (45% cell death): 12.5 nM rotenone.
In series [4] the test system is human fibroblasts from a patient with FBXL4 disease. Nature of the series: FBXL4 patient fibroblast mitochondrial content by FACS of Mitotracker Green. The series is classed as cell-based. Conditions: for increase in cellular mitochondrial content compared to baseline: overnight incubation, data not shown; for improvement of mitochondrial content: 24 hours, galactose media. How it is done: (§1) Human fibroblasts were studied from a subject harboring a 1067del (p.Gly356Alafs*15) nonsense mutation in the maternal FBXL4 allele and a c. 1790A>C (p.GLn597Pro) missense mutation in the paternal FBXL4 allele (Gal et al, 2013). Fibroblasts were cultured in DMEM (1 g/L glucose, 0.8 g/L L-Glutamine, 110 mg/L Sodium Pyruvate). Light, fluorescence, confocal microscopy and transmission electron microscopy (TEM, Lavorato et al. 2017) methods were used to analyze proband fibroblasts and mitochondrial morphology at baseline and following metabolic stress induced by incubating cells for 48 hours in glucose/uridine-free media. Mitotracker green was used for fluorescence microscopy, Tom20 Antibody (Santa Cruz) and DAPI was used for confocal microscopy.

Series [5] relates to Pdss2kd/kd mice. The experiment in a line: Liver NAD+, NADH and NADH:NAD+ redox analysis in Pdss2kd/kd mice. Type of series: in vivo. Particulars: 5 μg/mL to 10 μg/mL in drinking water; 2 months. From the text: FIGS. 17A-17E: Biochemical analysis of mitochondrial amount (citrate synthase activity) and NADH:NAD+ redox balance in coenzyme Q deficient Pdss2^kd/kd mice. […] Biochemical studies are shown both by sex and all grouped together, where n=number of animals studied per group.
Untreated mice included 2M and 1F.

The test system of series [6] is gas-1(fc21) ndufs2−/− mutant worms. Nature of the series: In vivo terminal pharyngeal bulb fluorescence (MitoSOX, MitoTracker Green, TMRE) in gas-1(fc21) worms. Also on record: species or system C. elegans. How it is done: In each panel, n conveys the number of animals studied per conditions. Bars and error bars convey mean and standard error, respectively.
Mitochondrial oxidant burden (MitoSOX Red), membrane potential (tetramethylrhodamine ethyl ester, TMRE), and mitochondrial content (MitoTracker Green FM, MTG) were performed in C. elegans at 20° C. using in vivo terminal pharyngeal bulb relative fluorescence microscopic quantitation. […] Worms were then paralyzed in situ with 5 mg/ml levamisole. Photographs were taken in a darkened room at 160× magnification with a Cool Snap cf2 camera (Nikon, Melville, N.Y.). A CY3 fluorescence cube set (MZFLIII, Leica, Bannockburn, Ill.) was used for MitoSOX and TMRE. A GFP2 filter set (Leica) was used for MitoTracker Green FM. Respective exposure times were 2 s, 320 ms, and 300 ms for each of MitoSOX, TMRE, and MitoTracker Green FM. The resulting images were background subtracted, and the nematode terminal pharyngeal bulb was manually circled to obtain mean intensity of the region by using Fiji Is Just ImageJ. Fluorescence data for each strain were normalized to its same day control to account for day-to-day variation. A minimum of 3 independent experiments of approximately 50 animals per replicate were studied per strain per dye. The significance of the difference in the mean fluorescence intensity between strains under different experimental conditions was assessed by mixed-effect ANOVA, which analyzes potential batch effect due to samples being experimentally prepared, processed, and analyzed on different days by including a batch random effect in the model. A statistical significance threshold was set at P<0.05. All statistical analyses were performed in SAS 9.3.
FIGS. 4A-4E show in vivo quantification of relative mitochondrial oxidant burden, mitochondrial content, and mitochondrial membrane potential in gas-1(fc21) complex I disease worms.

Series [7] relates to gas-1(fc21) mitochondrial complex I disease worms. The experiment in a line: Worm neuromuscular activity by body bend rate analysis. Conditions: 100 nMol. Type of series: in vivo, C. elegans. An excerpt: FIGS. 5A and 5B: Worm neuromuscular activity as assayed by body bend rate analysis was reduced in gas-1(fc21) mitochondrial complex I disease ndufs2^−/− worms relative to wild-type (N2 Bristol) worms.
(§2) Neuromuscular activity, and lifespan were quantified in the C. elegans gas-1(fc21) ndufs2^−/− mutants. A semi-automated screening method (Mathew et al, 2016) was used to test drug treatment effects on an integrated C. elegans health endpoint of fecundity, brood size, and behavior.

Series [8] relates to gas-1(fc21) ndufs2−/− complex I disease mutant worms. The experiment in a line: C. elegans gas-1(fc21) lifespan analysis. Type of series: in vivo. Conditions: FUDR used.
Text: FIG. 2C, the Table below FIGS. 2A and 2B indicates specific values and P values calculated in Graphpad Prism v5.0 for graph shown in FIG. 2B (survival data is shown in days).
as §2
(−) Epicatechin and (+) Epicatechins act through mimicry of the endogenous mitochondrial steroid 11-β-hydroxypregnenolone (11-OHP), a potent inducer of mitochondrial biogenesis. C. elegans nematode strains studied included wild-type (N2 Bristol) and gas-1(fc21) mutants. […] FIGS. 2D, 2E and 2F are graphs show a side-by-side comparison of (+)-epicatechin, (−)-epicatechin and 11-0HP on gas-1(fc-21) worm survival.

Series [9] relates to ndufs2−/− zebrafish. The experiment in a line: ndufs2−/− zebrafish dark-induced swimming activity with low-dose rotenone (Zebrabox). Type of series: in vivo, Danio rerio.
Series [10] concerns FBXL4-human disease patient fibroblasts. The experiment in a line: FBXL4 patient fibroblast cell death in galactose. The series is classed as cell-based. Conditions: 20 nM; 72 hours in galactose. How it is done: as §1
Series [11] deals with cell or animal models of primary RC dysfunction. The experiment in a line: Overall observations across cell and animal models of primary RC dysfunction.
The test system of series [12] is AB (wild-type) zebrafish. Nature of the series: AB wild-type zebrafish swimming activity with high-dose rotenone. The series is classed as in vivo, Danio rerio. From the text: Each symbol indicates one fish. **, p<0.01. ***, p<0.001.
EP07, 11-hydroxyprogesterone. **, p<0.01. Each symbol conveys activity of one well with n=8 animals/well in a 96-well plate, as quantified in dark-cycle analysis in the Zebrabox (Viewpoint).
Swimming activity (Zebrabox) was quantified in first five-minute periods of three consecutive dark cycles across 3 biological replicate experiments. Activity score was normalized to percent of wild-type concurrent controls. […] AB (wild-type) zebrafish had reduced swimming activity with high dose (70 nM) rotenone exposure for 4 hours on 7 dpf.
The indicated agents were added at 5 and 6 dpf, twice a day. 70 nM rotenone was added on 7 dpf. 4 hours later the larvae were transferred into a 96 well plate (1fish per well, 8 wells per condition), 96-well plates were immediately placed into NOLDUS to evaluate swim activity in repeating light-dark exposure. Swim activity effects were averaged in first 5 minutes of each light-off (‘dark’) period across all light on/off cycles.

The mark [13] stands for this setting: 10 nMol, 72 hours, redosing every 24 hours.

On to `Oc1cc(O)c2c(c1)O[C@@H](c1ccc(O)c(O)c1)[C@@H](O)C2` [(+) epicatechin], for which the “citrate synthase activity in liver” value in [1] is “substantially increased”. The “Daf-16 (FOXO) expression, downregulated in gas-1(fc21)” value in [2] (10 nM) is “substantially upregulated”. In addition, the “Par-4 (LKB1) expression, downregulated in gas-1(fc21)” value in series [2] (10 nM) is on record as “increased”. In addition, in series [2] (10 nM, relative to wild-type levels), the “SOD2 (mnSOD) expression, upregulated in gas-1(fc21)” value is given as “normalized”. For the same compound, the “MAPK signaling pathway expression (RNAseq, KEGG)” value in [2] is “uniquely and substantially modulated”. Moreover, the “cell death caused by rotenone (45% cell death)” value is “not” in [3] (1 nM), “improved” in series [3] (10 nM) and “improved” in [3] (100 nM). Further, the “podocyte viability upon RC inhibition” value in series [3] (10 nM, galactose media, 25 nM rotenone, 48 hours) is on record as “significantly improved”; in [3] (10 nM, glucose media, 35 nM rotenone, 48 hours), “significantly improved”. Besides, the “improvement in cell viability” value in series [3] (10 to 100 nanomolar, rotenone treated human cells) was “approximately 50%”. Further, in series [3] (rotenone, 48 hours), the “effectiveness on podocyte viability compared with the other enantiomer” value is “more effective than (−) epicatechin”. The “increase in cellular mitochondrial content compared to baseline” value in [4] (1 nM) was determined as 14%; in [4] (10 nM), 21%. For the same compound, the mitochondrial content result in series [4] (1 nMol to 20 nMol range) was “significantly increased”; in [6] (1 nMol, 24 hours), “significantly rescued”; in series [6] (10 nMol, 24 hours), “significantly rescued”; in series [6] (setting [13]), “significant rescue; also recorded: significantly rescued”; in series [6] (100 nMol, 24 hours), “significantly rescued”. The “improvement of mitochondrial content” value in series [4] (1 nMol) and in [4] (10 nMol) was 70% throughout. The “NAD+ deficiency / NADH:NAD+ redox imbalance in liver” value in [5] is listed as “did not correct”. For the same compound, the “improvement of mitochondrial membrane potential towards wild type levels” value in [6] (10 nM, 24 hours) amounted to 62%. For the same compound, the “improvement in mitochondrial content (MitoTracker Green)” value in [6] (10 nM, 24 hours, most improved concentration) is given as 39%. Further, the mitochondrial oxidant burden result in [6] (1 nMol, 24 hours) is given as “significantly rescued”; in series [6] (10 nMol, 24 hours) it was “significantly rescued”; in series [6] (setting [13]), “complete reversal; also recorded: significantly rescued”; in series [6] (100 nMol, 24 hours), “significantly rescued”. Moreover, the mitochondrial membrane potential entry in series [6] (10 nMol, 24 hours) was “significantly recued”. Further, in series [6] (all concentrations of 3-log order dose range, 24 hours), the “mitochondrial oxidant burden (MitoSox)” value is listed as “complete normalization”. The “impaired neuromuscular function (body bend rate) toward wild-type” value (“impaired neuromuscular function” for short) in series [7] is on record as “rescues; also recorded: significantly rescued”. For the same compound, the “lifespan rescue compared to buffer-only treated gas-1(fc21) worms” value in [8] (1 nMol) and in series [8] (10 nMol) was “Significant lifespan rescue” in each case. The compound further showed a median survival in series [8] (1 nMol, buffer-only gas-1(fc21) 19 days) of 23 days. For the same compound, in series [8] (10 nMol, buffer-only gas-1(fc21) 27 days), the maximum survival is 31 days. Besides, the swimming activity result in series [9] (100 nM, low-dose (12 nM) rotenone) is “significantly improved”. Moreover, the “increase in swimming activity toward wild-type controls” value in series [9] (100 nMol pre-treatment from 5 dpf, 12 nMol rotenone at 7 dpf) is on record as around 25%. Besides, in series [10], the “increased cell death in galactose” value was “significantly rescued”. For the same compound, in series [11] (C. elegans and human cell studies), the “effectiveness of low (nanomolar range) versus higher (micromolar range) concentrations” value is on record as “more effective than higher”. Besides, the adverse effects entry in [11] (cell or animal models of primary RC dysfunction) is reported as “No adverse effects”.

As for `CC(=O)[C@H]1CC[C@H]2[C@@H]3CC=C4C[C@@H](O)CC[C@]4(C)[C@H]3[C@@H](O)C[C@]12C` [11-β-hydroxypregnenolone], the “MAPK signaling pathway expression (RNAseq, KEGG)” value in [2] was “uniquely and substantially modulated”. In addition, the “impaired neuromuscular function” value in series [7] is given as “protective; also recorded: significantly rescued”. Moreover, the “lifespan rescue compared to buffer-only treated gas-1(fc21) worms” value in series [8] (1 nMol) and in [8] (10 nMol) was “Significant lifespan rescue” throughout. In addition, in [12] (2 nM pre-treatment from 5 dpf, high-dose (70 nM) rotenone 4 hours at 7 dpf), the “increase in swimming activity toward AB controls” value is given as around 25%. Also, in series [12] (6 nM, high-dose (70 nM) rotenone), the swimming activity result is recorded as “significantly improved”.

On to `Oc1cc(O)c2c(c1)O[C@H](c1ccc(O)c(O)c1)[C@H](O)C2` [(−) epicatechin], for which the “impaired neuromuscular function” value in series [7] is “significantly rescued”. For the same compound, the “lifespan rescue compared to buffer-only treated gas-1(fc21) worms” value in [8] (10 nMol) and in [8] (100 nMol) was “Significant lifespan rescue” in each case.
